Laboratory results from US20230024521A1, “JAK INHIBITORS” (Vimalan Biosciences, Inc., priority 2019, published 2023).
Read-outs that look alike come from different tables or passages of the source.

Columns and labels:
[1] = molecular target: JAK1 (Homo sapiens, UniProt P23458); assay: JAK/TYK2 assay (Kinase Glo luminescence): Jak1 kinase assay; type: biochemical; conditions: 7.5 nM enzyme, 2 uM ATP, 30 uM IRS-1, 1 hr
Description: (§1) Example A: JAK/TYK2 Assay 10 mM test compound stock or 1 mM control compound stock (tofocitinib, ruxolitinib or staurosporine) in DMSO was diluted to 0.4 mM in DMSO. A 3-fold series dilution was then performed in DMSO to generate 10 different compound concentrations. The assay was carried out in 384-well white plate. 0.5 μL of 40× compound DMSO solution at different concentrations was mixed with 10 uL 2× enzyme prepared in reaction buffer (20 mM HEPES, 10 mM MgCl2, 0.01% Tween, 1 mM DTT, pH 7.5). 10 uL 2× substrate mixture prepared in reaction buffer was then added to start the reaction. A short spin was done to settle down all solutions to the bottom of the plate. Final concentrations of test compound in the reaction mixture were 10000, 3333, 1111, 370, 123, 41.2, 13.7, 4.57, 1.52 and 0.51 nM, Concentrations of control compound were ten times less. Enzymatic reaction was conducted at 25° C. for 1-2 hours. 10 uL of Kinase Glo Reagents was added to stop the reaction and generate the luminescent signal which was measured using Envision. Luminescence signal was inversely related to kinase activity. […] The mixture without any compound was the positive control. [table]

[2] = molecular target: T1, JAK3 (Homo sapiens, UniProt P52333); assay: JAK/TYK2 assay (Kinase Glo luminescence): Jak3 kinase assay; type: biochemical; conditions: 1.5 nM enzyme, 2 uM ATP, 4 uM pEY, 1 hr; read-out: Jak3 kinase assay: IC50 Geomean
T1 sequence (P52333 1-1124): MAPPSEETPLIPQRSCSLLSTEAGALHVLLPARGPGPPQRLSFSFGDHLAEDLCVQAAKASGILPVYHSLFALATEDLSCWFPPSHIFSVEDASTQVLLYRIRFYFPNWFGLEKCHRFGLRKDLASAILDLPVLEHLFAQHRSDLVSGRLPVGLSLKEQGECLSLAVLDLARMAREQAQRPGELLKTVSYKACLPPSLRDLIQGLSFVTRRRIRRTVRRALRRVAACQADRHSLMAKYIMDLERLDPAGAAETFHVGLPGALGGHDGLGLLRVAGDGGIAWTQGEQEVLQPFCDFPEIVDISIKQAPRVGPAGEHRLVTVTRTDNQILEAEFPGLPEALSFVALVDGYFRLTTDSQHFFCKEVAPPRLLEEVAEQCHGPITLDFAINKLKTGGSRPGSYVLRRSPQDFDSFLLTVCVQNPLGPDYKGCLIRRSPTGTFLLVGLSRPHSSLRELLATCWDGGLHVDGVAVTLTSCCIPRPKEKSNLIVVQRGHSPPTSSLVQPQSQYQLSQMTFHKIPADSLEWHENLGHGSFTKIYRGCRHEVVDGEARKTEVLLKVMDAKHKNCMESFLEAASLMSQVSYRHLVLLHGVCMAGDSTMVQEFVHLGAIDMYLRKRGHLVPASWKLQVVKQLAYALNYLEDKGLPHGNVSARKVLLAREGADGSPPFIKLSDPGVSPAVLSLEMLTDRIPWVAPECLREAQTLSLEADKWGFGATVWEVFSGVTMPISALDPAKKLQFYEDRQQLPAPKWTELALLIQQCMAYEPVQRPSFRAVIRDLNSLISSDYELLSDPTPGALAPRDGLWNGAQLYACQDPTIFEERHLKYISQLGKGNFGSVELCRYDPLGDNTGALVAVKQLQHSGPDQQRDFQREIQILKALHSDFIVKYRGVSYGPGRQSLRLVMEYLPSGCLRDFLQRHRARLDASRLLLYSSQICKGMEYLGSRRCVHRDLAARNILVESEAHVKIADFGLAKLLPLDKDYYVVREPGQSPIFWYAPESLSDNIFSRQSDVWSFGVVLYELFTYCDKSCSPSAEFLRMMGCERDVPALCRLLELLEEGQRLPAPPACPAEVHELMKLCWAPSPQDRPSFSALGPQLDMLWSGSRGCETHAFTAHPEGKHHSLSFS
Description: as §1

[3] = test system: JAK1/JAK3: IL-2 stimulated STAT5 phosphorylation; assay: JAK1/JAK3: IL-2 stimulated STAT5 phosphorylation in PBMCs; type: cell-based, human; conditions: PBMC
Description: Example B: JAK1/JAK3: IL-2 Stimulated STAT5 Phosphorylation in PBMCs
Human PBMCs: (Precision Biomedicine)
Thaw as per instructions. Thaw frozen PBMCs in 37° C. water bath. Transfer cell suspension to 9 mL of pre-warmed complete media (RPMI+10% FBS+L-Glu+Pen/Strep). Centrifuge at 400×g for 5 min and wash cells with 10 mL of complete media. Resuspend pellet for a cell-count of 3×10^6 cells/mL
Seed cells into 96-deep well at 80 uL/well based on experimental plate layout. Add 10 μL of (10× conc.) of different concentrations of compounds to all wells except controls (unstimulated) and mix it with 200 uL multichannel pipet. Add 10 uL of complete RPMI media with same % DMSO in controls. For dilution of compounds and dilution range please refer to appendix. Incubate in 5% CO2 incubator for 1 hour at 37° C. Add 10 μL of (10× conc.) IL-2 (final conc. 50 ng/mL) to each well except unstimulated and unstained controls and incubate further for 20 minutes in water bath at 37° C.
Add 900 μL of prewarmed 1× Fix/Lyse solution (Appendix) and mix it properly using 1000 μL multichannel pipet; incubate further on water bath at 37° C. for 10 minutes. Centrifuge at 800×g for 5 minutes, remove 900 uL of supernatant, and add 1000 μL of freshly prepared wash buffer or 1× PBS. Centrifuge at 800×g for 5 minutes, remove 900 μL of supernatant, and resuspend the pellet in remaining buffer.
Disrupt the pellet by gentle tapping and add 1000 μL of ice cold BD Phosflow Perm Buffer III and incubate further on ice for 30 minutes. Centrifuge at 800×g for 5 minutes. Wash two more times with 1000 μL of BD Stain buffer, remove supernatant except 100 uL of buffer after the last wash.
Disrupt the pellet by gentle tapping, add 100 uL of stain buffer and 5 μL of pSTAT5_Alex488 […] in all appropriate wells and mix properly using 200 μL multichannel pipet. Incubate plate overnight at […]. Add 900 μL of BD stain buffer and centrifuge at 800×g for 5 minutes. Wash one additional time with 1000 μL of buffer. Finally resuspend the pellet in 300 uL of BD stain buffer.
Transfer the cells to 96-well v-bottom plate and acquire the cells in Beckman Coulter Cytoflex. Acquiring cells in Flow Cytometer: Keep the threshold value to 250. Acquire at least 8,000-10,000 cells.
RPMI 1640 Complete Medium: RPMI 1640 media+10% FBS.
Cytokine dilution: 1) IL-2 Stock at 100 ug/mL. Prepare a 0.5 ug/mL dilution by adding 5 uL of stock into 995 uL of cRPMI. Keep it on ice until used.
Lyse/Fix buffer preparation: Dilute 5× Lyse/Fix buffer to 1× using MQ water and keep at 37° C. until used.
BD Phosflow perm buffer III: Keep on ice/fridge

[4] = Homo sapiens, read-out: IL-2/J1J3/pS5: IC50 GeoMean (nM)
[5] = human PBMCs, IL-2 50 ng/mL, pSTAT5 by flow cytometry, read-out: IL-2/J1J3/pS5: IC50 GeoMean

Measured: IC50

Sequence of JAK1 (P23458 whole entry, species assumed): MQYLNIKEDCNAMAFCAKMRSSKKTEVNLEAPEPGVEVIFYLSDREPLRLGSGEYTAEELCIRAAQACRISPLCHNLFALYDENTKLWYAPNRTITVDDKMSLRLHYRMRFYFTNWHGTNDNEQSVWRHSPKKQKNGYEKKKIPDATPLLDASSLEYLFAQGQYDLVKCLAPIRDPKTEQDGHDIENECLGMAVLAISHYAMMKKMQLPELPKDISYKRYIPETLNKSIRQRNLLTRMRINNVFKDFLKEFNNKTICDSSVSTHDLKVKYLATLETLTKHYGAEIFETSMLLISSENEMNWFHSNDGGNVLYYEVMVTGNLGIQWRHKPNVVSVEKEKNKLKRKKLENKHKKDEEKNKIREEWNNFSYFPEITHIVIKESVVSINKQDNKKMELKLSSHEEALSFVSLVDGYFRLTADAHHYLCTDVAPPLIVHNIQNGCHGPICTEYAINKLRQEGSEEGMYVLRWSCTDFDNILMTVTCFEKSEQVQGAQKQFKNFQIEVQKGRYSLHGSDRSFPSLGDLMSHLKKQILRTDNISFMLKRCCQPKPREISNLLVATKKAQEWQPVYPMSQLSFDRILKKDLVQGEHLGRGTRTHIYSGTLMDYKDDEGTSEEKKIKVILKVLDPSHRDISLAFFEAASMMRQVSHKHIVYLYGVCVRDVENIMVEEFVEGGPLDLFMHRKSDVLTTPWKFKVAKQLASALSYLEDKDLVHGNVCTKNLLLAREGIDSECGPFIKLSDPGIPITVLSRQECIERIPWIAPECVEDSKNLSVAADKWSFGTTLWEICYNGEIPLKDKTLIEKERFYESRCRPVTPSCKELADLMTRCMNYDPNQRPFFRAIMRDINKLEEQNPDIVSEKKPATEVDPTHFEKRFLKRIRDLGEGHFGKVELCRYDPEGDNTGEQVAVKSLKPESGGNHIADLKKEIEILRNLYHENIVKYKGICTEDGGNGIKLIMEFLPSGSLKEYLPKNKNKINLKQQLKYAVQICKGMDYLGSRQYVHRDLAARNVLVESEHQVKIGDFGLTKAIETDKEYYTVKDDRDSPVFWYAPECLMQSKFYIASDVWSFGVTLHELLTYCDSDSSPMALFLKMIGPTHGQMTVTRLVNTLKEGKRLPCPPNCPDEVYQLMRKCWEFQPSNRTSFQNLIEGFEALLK

CC[C@H](Cn1ccc2cnc(Nc3cnn(CC(=O)N4CCOC4=O)c3)nc21)C(C)C [Example 3, (5)-3-(2-(4-((7-(2-ethyl-3-methylbutyl)-7H-pyrrolo[2,3-d]pyrimidin-2-yl)amino)-1H-pyrazol-1-yl)acetyl) oxazolidin-2-one]
< 100 nM: [1] | [2] | [3]; [4]

CCC(CC)Cn1ccc2cnc(Nc3cnn(CC(N)=O)c3)nc21 [Example 7, 2-(4-((7-(2-ethylbutyl)-7H-pyrrolo[2,3-d]pyrimidin-2-yl)amino)-1H-pyrazol-1-yl) acetamide]
< 100 nM: [1] | [2] | [3]; [5]

CC[C@@H](Cn1ccc2cnc(Nc3cnn(C4CCNC4=O)c3)nc21)C(C)C (stereo partly drawn) [Example 8]
< 100 nM: [1] | [2] | [3]; [4]

CC[C@H](Cn1ccc2cnc(Nc3cnn(CC(N)=O)c3)nc21)C(C)C [Example 1, (S)-2-(4-((7-(2-ethyl-3-methylbutyl)-7H-pyrrolo[2,3-d]pyrimidin-2-yl)amino)-1H-pyrazol-1-yl) acetamide]
< 100 nM: [1] | [2] | [3]; [5]
